Earlier results, collected in US10780114B2, “Therapeutic agent for skin wound or rough skin” (JFE MINERAL COMPANY, LTD., priority 2015, dated 2020).

Key:
skin = details: in vivo

## [Zn+2] [zinc ions]
skin
  Zinc ion level leading to increased inflammatory cell infiltration in skin and remarkably delayed reepithelization: not less than 15 mmol/L
fibroblast
  Zinc ion concentration that does not exhibit toxicity to a fibroblast: not more than 500 μmol/L
